Columns and labels:
[1] = tested on: ER-positive breast cancer; details: preclinical studies, in vivo and in vitro; cited from earlier work
[2] = tested on: breast cancer cell line ZR-75-1; assay: Inhibition of proliferation of breast cancer cell line ZR-75-1 (CellTiter-Glo); type: cell-based; details: Homo sapiens, 240 h, proliferation of ZR-75-1 cells, 10 days of incubation, read-out: IC50 (KAT6A)
[3] = molecular target: T1, KAT6A (Homo sapiens, UniProt Q92794); assay: Inhibition of human KAT enzymes, radioisotope method: KAT6A; type: biochemical; details: KAT6A (488-778)
T1 construct: purchased ACTIVE MOTIF 81223
T1 sequence (Q92794 whole entry): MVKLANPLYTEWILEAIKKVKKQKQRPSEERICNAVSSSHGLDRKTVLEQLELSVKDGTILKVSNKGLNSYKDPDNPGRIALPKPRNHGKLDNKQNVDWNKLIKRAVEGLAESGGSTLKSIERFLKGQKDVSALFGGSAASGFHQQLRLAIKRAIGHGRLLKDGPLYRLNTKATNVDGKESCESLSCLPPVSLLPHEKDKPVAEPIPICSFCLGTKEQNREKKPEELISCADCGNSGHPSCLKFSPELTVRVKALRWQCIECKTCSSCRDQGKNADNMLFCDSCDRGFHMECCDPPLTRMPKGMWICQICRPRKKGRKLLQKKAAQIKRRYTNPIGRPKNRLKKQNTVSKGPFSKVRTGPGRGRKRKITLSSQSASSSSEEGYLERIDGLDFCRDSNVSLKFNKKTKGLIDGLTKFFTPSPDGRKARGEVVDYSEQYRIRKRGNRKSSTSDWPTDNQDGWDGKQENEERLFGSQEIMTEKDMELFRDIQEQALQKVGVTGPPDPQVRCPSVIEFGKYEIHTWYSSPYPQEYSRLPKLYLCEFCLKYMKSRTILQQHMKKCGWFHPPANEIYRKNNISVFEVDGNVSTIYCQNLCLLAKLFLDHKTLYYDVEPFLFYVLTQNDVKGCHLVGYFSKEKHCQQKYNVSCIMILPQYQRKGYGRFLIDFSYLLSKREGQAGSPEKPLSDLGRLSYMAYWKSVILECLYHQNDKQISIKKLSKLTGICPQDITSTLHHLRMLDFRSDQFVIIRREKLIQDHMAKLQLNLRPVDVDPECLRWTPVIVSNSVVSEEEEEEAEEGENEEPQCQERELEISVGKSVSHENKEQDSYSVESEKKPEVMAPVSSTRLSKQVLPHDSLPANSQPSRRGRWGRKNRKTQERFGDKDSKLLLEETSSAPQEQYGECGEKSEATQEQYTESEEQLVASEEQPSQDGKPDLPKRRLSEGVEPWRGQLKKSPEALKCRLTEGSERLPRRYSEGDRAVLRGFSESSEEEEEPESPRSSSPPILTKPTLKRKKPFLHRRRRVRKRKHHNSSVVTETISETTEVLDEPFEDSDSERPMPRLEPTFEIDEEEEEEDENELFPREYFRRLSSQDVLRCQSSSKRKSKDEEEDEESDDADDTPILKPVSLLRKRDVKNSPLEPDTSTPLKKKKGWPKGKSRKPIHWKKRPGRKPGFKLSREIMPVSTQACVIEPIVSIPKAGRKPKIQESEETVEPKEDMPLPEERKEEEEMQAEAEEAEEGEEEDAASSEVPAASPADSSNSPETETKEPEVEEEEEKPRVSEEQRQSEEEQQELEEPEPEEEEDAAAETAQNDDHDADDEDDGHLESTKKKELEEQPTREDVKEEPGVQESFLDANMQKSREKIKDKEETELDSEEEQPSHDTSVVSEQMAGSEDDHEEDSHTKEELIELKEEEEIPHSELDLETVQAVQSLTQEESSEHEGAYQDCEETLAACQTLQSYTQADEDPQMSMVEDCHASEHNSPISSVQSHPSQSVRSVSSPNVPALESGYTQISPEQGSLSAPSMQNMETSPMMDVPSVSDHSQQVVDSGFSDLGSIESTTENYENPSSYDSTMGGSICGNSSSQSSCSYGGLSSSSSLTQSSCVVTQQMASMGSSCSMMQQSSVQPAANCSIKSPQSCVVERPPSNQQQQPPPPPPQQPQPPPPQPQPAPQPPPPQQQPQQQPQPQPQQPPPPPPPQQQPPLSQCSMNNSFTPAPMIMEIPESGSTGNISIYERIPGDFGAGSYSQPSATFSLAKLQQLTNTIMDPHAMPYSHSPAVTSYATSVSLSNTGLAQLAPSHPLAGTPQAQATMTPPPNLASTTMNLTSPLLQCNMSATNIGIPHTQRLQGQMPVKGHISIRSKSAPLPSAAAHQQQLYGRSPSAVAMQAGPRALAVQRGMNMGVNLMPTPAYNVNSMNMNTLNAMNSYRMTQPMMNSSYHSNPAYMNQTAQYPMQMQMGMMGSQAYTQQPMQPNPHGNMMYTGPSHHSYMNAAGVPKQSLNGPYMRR
Source text: (§1) Test Example 2: Selective Inhibitory Effects of Test Compounds on Human KAT6 Enzymes (Radioisotope Method)
(§2) • 1. KAT6A (ACTIVE MOTIF, Cat. No. 81223) • 2. KAT5 (BPS, Cat. No. 79422) • 3. KAT7 (ACTIVE MOTIF, Cat. No. 31889) • 4. KAT6B (ACTIVE MOTIF, Cat. No. 81224) • 5. Acetyl coenzyme A, [Acetyl-^3H, 250 μCi (9.25 MBq](PEIRKIN4 ELMER, Cat. No. NET290250UC) • 6. Acetyl coenzyme A (CAYMVAN, Cat. No. 16160) • 7. 384-well Flashplate (Perkin Elmer, Cat. No. SMP410A001PK) • 8. Garcinol (MCE, Cat. No. HY-107569) • 9. Automatic microplate pipetting system (Precision, PRC384U, BioTek) • 10. Ultrasonic nanoliter liquid handling system (Echo 650 Liquid Handler, Echo 650, Labcyte) • 11. Centrifuge (Avanti J-15R, Beckman Coulter) • 12. Liquid scintillation counter (Microplate Counter, Microbeta2, Perkin Elmer)
(§3) • 1. For KAT6A and KAT7, a 1× assay buffer was prepared as follows: 10 mM Tris-HCl pH 8.0, 0.01% Tween-20, and 1 mM DTT; for KAT6B and KAT5, a 1× assay buffer was prepared as follows: 50 mM Tris-HCl pH 8.0, 0.05% Tween-20, and 1 mM DTT. • 2. Compound preparation: For KAT6A, KAT6B, and KAT7, the final concentration of the compounds started at 1 μM, followed by a 5-fold serial dilution across a total of 7 concentration gradients; for KAT5, the final concentration of the compounds started at 10 μM, followed by a 5-fold serial dilution across a total of 7 concentration gradients. • 3. Substrate reaction solution preparation: The mixed substrates of H4 peptide and [3H]acetyl coenzyme A at final concentrations were prepared using the respective 1× assay buffers, as shown in Table 4.
(§4) • 1. The enzyme solution was transferred to 384-well reaction plates at 10 μL/well. For each negative control well, 10 μL of the 1× assay buffer was transferred. The plates were then centrifuged at 1000 RPM for 1 min and incubated at room temperature for 15 min. • 2. The substrate reaction solution was added at 10 μL/well, and the plates were centrifuged at 1000 RPM for 1 min to start the reaction. • 3. The samples for KAT6A, KAT6B, KAT7, KAT8, and KAT5 were then incubated at room temperature for 60 min, 120 min, 45 min, 60 min, and 120 min, respectively. • 4. Stop solution preparation: A stop solution was prepared by diluting 50 µM cold Ac-CoA in 1× buffer. • 5. The stop solution was added at 10 μL/well, and the plates were centrifuged at […] for 1 min to stop the reaction. • 6. The mixtures in the reaction plates were transferred at 25 μL/well to new plates (Streptavidin FlashPlate HTS PLUS, High Capacity, 384-well). • 7. The plates were incubated at room temperature for at least 60 min and then • 8. read using MicroBeta2.
(§5) Raw data were obtained in EXCEL, and the inhibition rates were calculated:
(§6) [formula] [formula] • Max signal: reaction signal from enzyme and substrate; • Sample signal: signal from sample; • Min signal: signal from substrate only (negative control).
(§7) The inhibition rate data were imported into XLFit Excel, and IC50 values were obtained using formula (2):
(§8) [formula] [formula] • Top: value of the top plateau of the fitted regression curve; • Bottom: value of the bottom plateau of the fitted regression curve; • HillSlope: slope of the fitted regression curve.
(§9) The IC50 value was substituted into formula (3) to obtain the enzymatic activity inhibition constant Ki:
(§10) [formula] • [S]: substrate concentration; Km: Michaelis constant.

[4] = molecular target: T2, KAT6B (Homo sapiens, UniProt Q8WYB5); assay: Inhibition of human KAT enzymes, radioisotope method: KAT6B; type: biochemical; details: KAT6B (718-1008)
T2 construct: purchased ACTIVE MOTIF 81224
Source text: as §1, §2, §3, §4, §5, §6, §7, §8, §9, §10

[5] = molecular target: T3, KAT5 (Homo sapiens, UniProt Q92993); assay: Inhibition of human KAT enzymes, radioisotope method: KAT5; type: biochemical; details: for Ki: KAT5 (full-length), radioisotope method; for KAT5/ KAT6A / KAT5/ KAT6B: selectivity, ratio of Ki
T3 construct: purchased BPS 79422
T3 sequence (Q92993 whole entry): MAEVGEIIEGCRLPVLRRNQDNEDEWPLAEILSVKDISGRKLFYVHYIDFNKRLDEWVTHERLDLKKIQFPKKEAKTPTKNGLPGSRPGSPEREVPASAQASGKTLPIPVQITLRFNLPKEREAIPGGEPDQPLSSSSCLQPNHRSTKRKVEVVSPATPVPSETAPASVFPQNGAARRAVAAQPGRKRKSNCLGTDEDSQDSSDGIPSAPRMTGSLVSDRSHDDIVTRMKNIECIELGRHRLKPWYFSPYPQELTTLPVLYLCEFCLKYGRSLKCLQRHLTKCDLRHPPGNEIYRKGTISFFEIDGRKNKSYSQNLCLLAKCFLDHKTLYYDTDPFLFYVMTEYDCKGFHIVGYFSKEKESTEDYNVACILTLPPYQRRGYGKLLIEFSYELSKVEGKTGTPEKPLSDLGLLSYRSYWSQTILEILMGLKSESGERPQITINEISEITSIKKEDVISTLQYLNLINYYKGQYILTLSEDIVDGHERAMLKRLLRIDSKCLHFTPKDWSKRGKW
Source text: as §1, §2, §3, §4, §5, §6, §7, §8, §9, §10

[6] = molecular target: T4, KAT7 (Homo sapiens, UniProt O95251); assay: Inhibition of human KAT enzymes, radioisotope method: KAT7; type: biochemical; details: for Ki: KAT7 (full-length), radioisotope method; for KAT7/ KAT6A / KAT7/ KAT6B: selectivity, ratio of Ki
T4 construct: purchased ACTIVE MOTIF 31889
T4 sequence (O95251 whole entry): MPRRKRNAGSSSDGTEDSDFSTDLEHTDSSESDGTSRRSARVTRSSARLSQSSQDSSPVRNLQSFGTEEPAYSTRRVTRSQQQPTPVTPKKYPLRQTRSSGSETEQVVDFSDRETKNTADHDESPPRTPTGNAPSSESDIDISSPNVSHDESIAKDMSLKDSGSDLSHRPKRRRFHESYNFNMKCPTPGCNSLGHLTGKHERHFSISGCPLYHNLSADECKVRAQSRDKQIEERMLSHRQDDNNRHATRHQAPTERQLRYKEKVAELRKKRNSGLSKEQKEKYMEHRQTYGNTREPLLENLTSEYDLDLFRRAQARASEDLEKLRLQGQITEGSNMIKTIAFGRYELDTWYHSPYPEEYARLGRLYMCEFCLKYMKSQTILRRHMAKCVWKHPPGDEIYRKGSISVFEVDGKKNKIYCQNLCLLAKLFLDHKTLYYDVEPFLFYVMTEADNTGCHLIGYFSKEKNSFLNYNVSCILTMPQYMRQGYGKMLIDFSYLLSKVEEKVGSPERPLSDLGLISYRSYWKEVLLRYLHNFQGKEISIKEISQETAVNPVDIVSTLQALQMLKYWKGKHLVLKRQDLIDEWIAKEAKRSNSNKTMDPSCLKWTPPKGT
Source text: as §1, §2, §3, §4, §5, §6, §7, §8, §9, §10

IC50 [2] | Ki [3] | Ki [4] | Ki [5] | KAT5/ KAT6A [5] | KAT5/ KAT6B [5] | Ki [6] | KAT7/ KAT6A [6] | KAT7/ KAT6B [6] | Compound | anti-tumor activity against ER-positive breast cancer [1]
 |  |  |  |  |  |  |  |  | COc1cccc(OC)c1S(=O)(=O)Nc1noc2cc(Cn3cccn3)cc(OC)c12 [CTx-648] | excellent in vivo and in vitro anti-tumor activity
0.5 to 2 nM | 0.29 nM | 1.6 nM | 1150 nM | 3967 | 719 | 64.5 nM | 223 | 40 | COc1ccc2c(c1S(=O)(=O)Nc1noc3cc(Cn4cccn4)c(F)c(OC)c13)OCCN2C(C)=O [Compound 110, N-(6-((1H-Pyrazol-1-yl)methyl)-5-fluoro-4-methoxybenzo[d]isoxazol-3-yl)-4-acetyl-7-methoxy-3,4-dihydro-2H-benzo[b][1,4]oxazine-8-sulfonamide] | 
2 to 10 nM | 0.28 nM | 0.9 nM | 577 nM | 2061 | 641 | 96 nM | 343 | 107 | COc1ccc2c(c1S(=O)(=O)Nc1noc3cc(Cn4cccn4)c(F)c(OC)c13)OCCN2S(C)(=O)=O [Compound 121, N-(6-((1H-Pyrazol-1-yl)methyl)-5-fluoro-4-methoxybenzo[d]isoxazol-3-yl)-7-methoxy-4-(methylsulfonyl)-3,4-dihydro-2H-benzo[b][1,4]oxazine-8-sulfonamide] | 

— patent publication US20260174778A1, “SULFONAMIDE COMPOUND, AND PREPARATION METHOD THEREFOR AND USE THEREOF” (SHANGHAI HENLIUS BIOTECH, INC., priority 2023, published 2026)
